Results: patent publication US20050085463A1 (priority 2003, published 2005)

How the values were obtained:
Ca^2+ channels = assay: Ligand binding screen at 10 μM
[1] = biological target: α2A (Alpha 2A) adrenergic receptor (Homo sapiens, UniProt P08913); assay: R-SAT competitive antagonist assay; details: nr = no significant antagonist or inverse agonist activity up to 1 μM, nr* = nr but significant agonist activity
5HT3 receptors = 5HT3 receptors (Homo sapiens, UniProt P46098); assay: Ligand binding screen at 10 μM
5HT3 receptors, sequence (P46098 24-478): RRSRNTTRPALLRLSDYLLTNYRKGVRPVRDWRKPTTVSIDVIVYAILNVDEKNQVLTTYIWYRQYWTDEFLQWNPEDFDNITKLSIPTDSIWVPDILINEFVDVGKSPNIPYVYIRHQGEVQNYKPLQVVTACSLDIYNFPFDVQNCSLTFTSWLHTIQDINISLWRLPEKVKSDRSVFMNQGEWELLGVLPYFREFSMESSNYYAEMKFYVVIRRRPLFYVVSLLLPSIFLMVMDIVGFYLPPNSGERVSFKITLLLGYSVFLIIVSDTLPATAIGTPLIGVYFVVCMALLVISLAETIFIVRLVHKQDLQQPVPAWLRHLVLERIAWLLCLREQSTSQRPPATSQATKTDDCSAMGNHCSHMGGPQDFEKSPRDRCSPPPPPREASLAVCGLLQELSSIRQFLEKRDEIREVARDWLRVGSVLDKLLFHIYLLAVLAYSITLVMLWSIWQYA

5-HT2C receptor = 5-HT2C receptor (Homo sapiens, UniProt P28335); assay: R-SAT competitive antagonist assay
5-HT2C receptor, sequence (P28335 33-458): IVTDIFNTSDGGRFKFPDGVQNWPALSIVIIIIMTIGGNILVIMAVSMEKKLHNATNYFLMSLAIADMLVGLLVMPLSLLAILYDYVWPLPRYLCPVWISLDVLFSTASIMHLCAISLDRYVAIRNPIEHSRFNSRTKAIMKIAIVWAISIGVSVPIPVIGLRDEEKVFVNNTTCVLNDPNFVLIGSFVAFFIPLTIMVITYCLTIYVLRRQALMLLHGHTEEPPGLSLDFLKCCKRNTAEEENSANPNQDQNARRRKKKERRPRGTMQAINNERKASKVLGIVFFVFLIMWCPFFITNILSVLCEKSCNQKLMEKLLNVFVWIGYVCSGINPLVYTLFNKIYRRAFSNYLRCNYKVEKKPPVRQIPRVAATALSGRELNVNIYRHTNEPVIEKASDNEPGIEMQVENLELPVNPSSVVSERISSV

M4 muscarinic receptor = biological target: T1, M4 muscarinic receptor (Homo sapiens, UniProt P08173); assay: R-SAT agonist assay; type: cell-based; set-up: expressed in transfected cells; host or cells: NIH/3T3; details: relative to carbachol, No response/nr = no agonist activity up to 10 μM
T1 sequence (P08173 1-479): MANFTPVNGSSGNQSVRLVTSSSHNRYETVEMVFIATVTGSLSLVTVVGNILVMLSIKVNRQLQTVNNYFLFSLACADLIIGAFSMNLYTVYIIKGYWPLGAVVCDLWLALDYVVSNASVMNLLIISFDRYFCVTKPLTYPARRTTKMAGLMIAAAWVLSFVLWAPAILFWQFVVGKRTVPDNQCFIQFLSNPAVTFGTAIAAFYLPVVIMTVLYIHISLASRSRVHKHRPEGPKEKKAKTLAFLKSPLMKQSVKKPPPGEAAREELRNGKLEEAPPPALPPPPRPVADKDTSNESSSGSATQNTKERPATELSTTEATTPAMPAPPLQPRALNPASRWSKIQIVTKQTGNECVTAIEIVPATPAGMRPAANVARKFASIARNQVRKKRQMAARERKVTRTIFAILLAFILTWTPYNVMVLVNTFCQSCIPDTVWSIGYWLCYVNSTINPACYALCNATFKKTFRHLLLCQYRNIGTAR

M1 muscarinic receptor [2] = biological target: T2, M1 muscarinic receptor (Homo sapiens, UniProt P11229); assay: cell-based
T2 sequence (P11229 1-460): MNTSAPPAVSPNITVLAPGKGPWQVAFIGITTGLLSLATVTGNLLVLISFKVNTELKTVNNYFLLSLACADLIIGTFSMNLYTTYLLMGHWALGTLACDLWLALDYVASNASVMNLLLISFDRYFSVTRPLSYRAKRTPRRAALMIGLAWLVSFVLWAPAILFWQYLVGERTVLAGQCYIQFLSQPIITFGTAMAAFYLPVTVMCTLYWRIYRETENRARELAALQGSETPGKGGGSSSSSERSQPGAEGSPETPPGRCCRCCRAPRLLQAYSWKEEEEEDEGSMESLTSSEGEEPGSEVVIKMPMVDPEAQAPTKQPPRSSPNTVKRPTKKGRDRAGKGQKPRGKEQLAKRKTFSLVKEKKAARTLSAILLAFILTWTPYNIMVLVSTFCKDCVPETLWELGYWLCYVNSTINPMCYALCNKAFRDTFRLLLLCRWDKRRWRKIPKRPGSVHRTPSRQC

[3] = steady state kinetics in humans (ref. 13); cited from earlier work
M2 receptors = M2 receptors (Homo sapiens, UniProt P08172); assay: Ligand binding screen at 10 μM
M2 muscarinic receptor = biological target: T3, M2 muscarinic receptor (Homo sapiens, UniProt P08172); assay: R-SAT competitive antagonist assay; type: cell-based; set-up: expressed in transfected cells; host or cells: NIH/3T3; details: nr = no significant antagonist or inverse agonist activity up to 1 μM, nr* = nr but significant agonist activity
T3 sequence (P08172 1-466): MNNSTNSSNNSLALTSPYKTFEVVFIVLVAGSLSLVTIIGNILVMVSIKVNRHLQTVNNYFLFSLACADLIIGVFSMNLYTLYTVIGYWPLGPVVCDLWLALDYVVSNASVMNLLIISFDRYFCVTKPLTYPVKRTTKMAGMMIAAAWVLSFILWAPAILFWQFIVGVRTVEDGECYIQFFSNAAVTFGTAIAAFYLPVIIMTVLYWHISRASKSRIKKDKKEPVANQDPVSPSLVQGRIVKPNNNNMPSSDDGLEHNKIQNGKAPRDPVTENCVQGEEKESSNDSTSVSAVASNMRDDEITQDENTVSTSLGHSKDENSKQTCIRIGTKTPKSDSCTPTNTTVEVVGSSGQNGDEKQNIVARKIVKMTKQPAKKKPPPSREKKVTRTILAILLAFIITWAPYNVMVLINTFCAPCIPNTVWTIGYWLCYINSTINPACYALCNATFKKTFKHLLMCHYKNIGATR

[4] = Brain-to-plasma ratio in rats; type: in vivo; details: male, Sprague-Dawley, rat, po, 10 mg/kg, brain-to-plasma ratio of NDMC
Experimental: The pharmacokinetics of clozapine and N-desmethylclozapine (NDMC) was evaluated in rats after intravenous (i.v.) and oral (p.o.) dosing. Cmax, Tmax and bioavailability after p.o. dosing and the volume of distribution (Vss), terminal plasma half-life (T1/2) and clearance (CLs) after i.v. dosing were determined. […] Animals were euthanised and brain and plasma samples obtained at 60 or 240 minutes post-dose, depending on study group. The levels of NDMC and clozapine were measured in each sample.
The pharmacokinetic study described above included an initial assessment of the distribution of NDMC into brain.

M1 muscarinic receptor [5] = biological target: T2, M1 muscarinic receptor
[6] = system: amphetamine-induced hyperactivity; assay: Reversal of amphetamine-induced hyperactivity; type: in vivo, Non-Swiss Albino (NSA) mice; details: s.c. or p.o.
α1 receptors = assay: Ligand binding screen at 10 μM
D25 receptors = D25 receptors (Homo sapiens, UniProt P14416); assay: Ligand binding screen at 10 μM
D25 receptors, sequence (P14416 1-414 isoform P14416-2): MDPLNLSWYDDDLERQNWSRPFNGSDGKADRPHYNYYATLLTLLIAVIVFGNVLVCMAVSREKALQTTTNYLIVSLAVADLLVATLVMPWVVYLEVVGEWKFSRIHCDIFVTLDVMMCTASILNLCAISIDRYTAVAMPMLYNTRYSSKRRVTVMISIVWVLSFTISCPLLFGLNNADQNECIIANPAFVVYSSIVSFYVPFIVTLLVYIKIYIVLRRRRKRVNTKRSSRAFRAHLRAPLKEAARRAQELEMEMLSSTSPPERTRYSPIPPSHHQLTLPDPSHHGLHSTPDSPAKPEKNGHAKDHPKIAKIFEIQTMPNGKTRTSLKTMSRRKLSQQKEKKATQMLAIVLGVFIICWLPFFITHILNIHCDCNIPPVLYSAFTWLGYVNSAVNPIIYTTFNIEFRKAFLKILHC

M1 receptors = M1 receptors (Homo sapiens, UniProt P11229); assay: Ligand binding screen at 10 μM

α2A (Alpha 2A) adrenergic receptor, sequence (P08913 whole entry): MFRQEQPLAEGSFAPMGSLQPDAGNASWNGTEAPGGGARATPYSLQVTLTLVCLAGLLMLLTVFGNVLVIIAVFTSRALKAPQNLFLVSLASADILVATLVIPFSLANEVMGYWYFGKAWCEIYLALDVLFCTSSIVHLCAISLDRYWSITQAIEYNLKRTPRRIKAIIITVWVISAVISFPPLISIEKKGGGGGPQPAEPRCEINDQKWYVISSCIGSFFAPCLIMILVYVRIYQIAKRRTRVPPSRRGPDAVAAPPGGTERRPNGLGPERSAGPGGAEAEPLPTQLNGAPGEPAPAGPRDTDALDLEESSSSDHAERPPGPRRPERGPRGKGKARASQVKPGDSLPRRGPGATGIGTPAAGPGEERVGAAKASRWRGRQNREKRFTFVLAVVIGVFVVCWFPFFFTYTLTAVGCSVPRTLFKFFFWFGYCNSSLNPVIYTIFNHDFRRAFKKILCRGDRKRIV

SMILES: Clc1ccc2c(c1)N=C(N1CCNCC1)c1ccccc1N2 [NDMC, 8-chloro-11-(1-piperazinyl)-5H-dibenzo [b,e][1,4] diazepine]
- inhibition of binding, Ca^2+ channels (Ca^2+ channels): ≥ 90%
- pKi α2A, competitive antagonist [1]: nr and nr^
- inhibition at 10 µM (5HT3 receptors): ≥ 90%
- Ki (5-HT2C receptor): 15.8 nM
- pKi 5-HT2C, competitive antagonist (5-HT2C receptor; R-SAT, nr = no significant antagonist or inverse agonist activity up to 1 μM, nr* = nr but significant agonist activity): 7.8 ± 0.2
- M4 Efficacy (M4 muscarinic receptor): 87 ± 8%
- Emax (M1 muscarinic receptor [2]; CHO, read-out: M1 % Efficacy, PI hydrolysis, relative to carbachol): 56%
- EC50 (M1 muscarinic receptor [2]; M1 pEC50, PI hydrolysis, agonist): 200 nM
- EC50 (M1 muscarinic receptor [2]; potency, M1 agonist, PI hydrolysis, n=3): 93 nM
- share of total serum clozapine concentrations [3]: 40-75%
- inhibition at 10 µM (M2 receptors): ≥ 90%
- pKi M2, competitive antagonist (M2 muscarinic receptor): nr*
- Kp at 1 h ([4]; 60 minutes after oral 10 mg/kg NDMC): 0.36 ± 0.16
- Kp at 1 h ([4]; 60 minutes after oral clozapine): 0.26 ± 0.07
- Kp at 4 h ([4]; 240 minutes after oral 10 mg/kg NDMC): 1 ± 0.4
- Kp at 4 h ([4]; 240 minutes after oral clozapine): 2.6 ± 0.8
- pKi, competitive antagonist (M1 muscarinic receptor [5]; PI hydrolysis in the presence of 3-micromolar carbachol): no response
- M1 % Efficacy (M1 muscarinic receptor [5]; PI hydrolysis, relative to carbachol, listed as N-desmethylclozapine): 65 ± 10%
- dose that attenuated amphetamine-induced hyperactivity [6]: 10 mg/kg
- inhibition of binding, α1 (α1 receptors): ≥ 90%
- inhibition at 10 µM (D25 receptors): ≥ 90%
- inhibition at 10 µM (M1 receptors): ≥ 90%
